One test has as its system HT-29. The test is described as follows: Antiproliferative activity against human HT-29 cells with PIK3CA mutation assessed as inhibition of cell growth incubated for 48 to 72 hrs by MTT assay. Format: functional, cell-based. (In general: Formazan colour is commonly taken as a measure of viable cells.)
Test [1] relates to SW-620. Put plainly: Antiproliferative activity against human SW620 cells assessed as inhibition of cell growth incubated for 48 to 72 hrs by MTT assay. The test is classed as functional, cell-based.
In another test the test system is NCI-H3122. The test is described as follows: Antiproliferative activity against human NCI-H3122 cells assessed as inhibition of cell growth incubated for 48 to 72 hrs by MTT assay. The test is classed as functional, cell-based.
The test system of test [2] is SW-620. The test is described as follows: Antitumor activity against human SW620 cells xenografted in BALB/c nude mouse assessed as tumor growth inhibition at 30 mg/kg, IG administered daily for 30 days and measured every 2 days relative to control. Format: functional. Conditions: SW-620, po, 720 h, time 30 day, read-out: TGI. In general terms: In xenograft studies the graft and the host belong to different species.

Test [3] deals with HeLa. Put plainly: Antitumor activity against human HeLa cells xenografted in BALB/c nude mouse assessed as tumor growth inhibition at 30 mg/kg, IG administered daily for 30 days and measured every 2 days relative to control. Format: functional. The note with it: po, 720 h, time 30 day, read-out: TGI.
The next test deals with NCI-H446. The test is described as follows: Antiproliferative activity against PTEN-null human NCI-H446 cells assessed as inhibition of cell growth incubated for 48 to 72 hrs by MTT assay. The test is classed as functional, cell-based.
Test [4] concerns HeLa. The test is described as follows: Antiproliferative activity against human HeLa cells assessed as inhibition of cell growth incubated for 48 to 72 hrs by MTT assay. Format: functional, cell-based.
Another test deals with HCT-15. The test is described as follows: Antiproliferative activity against human HCT-15 cells with PIK3CA mutation assessed as inhibition of cell growth incubated for 48 to 72 hrs by MTT assay. Format: functional, cell-based.
The target of test [5] is T1, Phosphatidylinositol 4,5-bisphosphate 3-kinase catalytic subunit delta isoform (Homo sapiens, UniProt O00329).
T1 sequence (O00329 whole entry): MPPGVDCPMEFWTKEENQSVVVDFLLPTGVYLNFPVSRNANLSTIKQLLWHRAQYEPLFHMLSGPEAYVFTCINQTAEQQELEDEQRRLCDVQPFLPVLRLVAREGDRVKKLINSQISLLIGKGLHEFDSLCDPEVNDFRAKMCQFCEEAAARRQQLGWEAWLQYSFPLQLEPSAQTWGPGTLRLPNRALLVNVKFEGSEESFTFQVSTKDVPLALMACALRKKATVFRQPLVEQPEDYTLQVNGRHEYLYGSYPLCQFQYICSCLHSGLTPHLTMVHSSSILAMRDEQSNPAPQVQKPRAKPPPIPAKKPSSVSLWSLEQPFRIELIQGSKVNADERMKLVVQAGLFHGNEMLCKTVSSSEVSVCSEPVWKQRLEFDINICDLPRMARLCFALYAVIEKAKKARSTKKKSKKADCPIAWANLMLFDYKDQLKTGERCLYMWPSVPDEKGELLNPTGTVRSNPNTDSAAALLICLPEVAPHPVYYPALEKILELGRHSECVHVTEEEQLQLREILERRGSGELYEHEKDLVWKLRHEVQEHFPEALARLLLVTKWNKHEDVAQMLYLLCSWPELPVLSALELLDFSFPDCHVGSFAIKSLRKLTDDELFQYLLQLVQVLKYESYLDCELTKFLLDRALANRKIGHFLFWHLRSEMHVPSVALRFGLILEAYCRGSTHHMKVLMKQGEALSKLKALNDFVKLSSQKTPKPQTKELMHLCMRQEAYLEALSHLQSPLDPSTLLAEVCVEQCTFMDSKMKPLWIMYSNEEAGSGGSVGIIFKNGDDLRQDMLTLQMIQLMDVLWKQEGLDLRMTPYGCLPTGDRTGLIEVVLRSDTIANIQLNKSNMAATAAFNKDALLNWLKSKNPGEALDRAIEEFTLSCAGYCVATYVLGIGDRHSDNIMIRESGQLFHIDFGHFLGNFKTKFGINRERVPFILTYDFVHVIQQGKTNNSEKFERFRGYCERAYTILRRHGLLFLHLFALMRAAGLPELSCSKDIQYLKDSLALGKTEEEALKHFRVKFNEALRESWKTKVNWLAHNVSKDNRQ
The test is described as follows: Inhibition of PI3Kdelta (unknown origin) using PIP2 as substrate incubated for 2 hrs in presence of ATP by Kinase Glo luminescence assay. (In general: Kinase-Glo measures the ATP left after a reaction by luminescence.)

Test [6] deals with Serine/threonine-protein kinase mTOR (Homo sapiens, UniProt P42345). The test is described as follows: Inhibition of N-terminal FLAG-tagged recombinant human mTOR (1362 to end residue) using ULight-4EBP1 peptide as substrate incubated for 30 mins in presence of ATP by Lance ultra assay.
Test [7] deals with Phosphatidylinositol 4,5-bisphosphate 3-kinase catalytic subunit alpha isoform (Homo sapiens, UniProt P42336). The test is described as follows: Inhibition of PI3Kalpha (unknown origin) using PIP2 as substrate incubated for 1 hr in presence of ATP by Kinase Glo luminescence assay.
Phosphatidylinositol 4,5-bisphosphate 3-kinase catalytic subunit alpha isoform, sequence (P42336 whole entry, canonical isoform): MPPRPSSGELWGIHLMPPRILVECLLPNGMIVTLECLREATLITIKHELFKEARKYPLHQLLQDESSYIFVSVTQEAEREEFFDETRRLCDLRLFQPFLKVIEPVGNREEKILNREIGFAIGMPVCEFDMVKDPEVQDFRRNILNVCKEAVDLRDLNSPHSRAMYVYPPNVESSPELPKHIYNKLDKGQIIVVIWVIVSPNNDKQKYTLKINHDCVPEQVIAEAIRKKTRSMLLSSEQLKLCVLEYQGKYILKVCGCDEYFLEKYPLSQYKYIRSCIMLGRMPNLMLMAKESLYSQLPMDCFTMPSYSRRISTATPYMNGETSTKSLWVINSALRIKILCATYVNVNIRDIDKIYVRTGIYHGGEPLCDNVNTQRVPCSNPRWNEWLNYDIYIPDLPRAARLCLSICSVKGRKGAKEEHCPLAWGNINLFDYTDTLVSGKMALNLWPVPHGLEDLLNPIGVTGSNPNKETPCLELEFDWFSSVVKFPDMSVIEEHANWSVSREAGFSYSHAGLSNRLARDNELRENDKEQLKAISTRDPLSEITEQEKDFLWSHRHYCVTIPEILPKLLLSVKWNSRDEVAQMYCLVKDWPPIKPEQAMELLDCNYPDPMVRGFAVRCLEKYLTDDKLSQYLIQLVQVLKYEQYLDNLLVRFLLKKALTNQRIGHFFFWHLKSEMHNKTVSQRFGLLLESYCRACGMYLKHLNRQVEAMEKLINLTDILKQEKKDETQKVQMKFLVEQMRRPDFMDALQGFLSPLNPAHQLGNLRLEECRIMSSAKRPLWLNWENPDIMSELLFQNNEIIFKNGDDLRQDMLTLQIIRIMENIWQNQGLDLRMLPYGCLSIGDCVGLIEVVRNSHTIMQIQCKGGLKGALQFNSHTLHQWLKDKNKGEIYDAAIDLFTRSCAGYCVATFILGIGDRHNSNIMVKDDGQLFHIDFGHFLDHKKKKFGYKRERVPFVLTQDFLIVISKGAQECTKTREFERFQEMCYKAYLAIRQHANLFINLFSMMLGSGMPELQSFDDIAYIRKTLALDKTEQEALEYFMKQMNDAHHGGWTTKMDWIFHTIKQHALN

Broadly, the IC50 is the concentration needed to halve the response being measured.

Consider `Cn1c(=O)n(-c2ccc(C(C)(C)C#N)cc2)c2c3cc(-c4cnc5ccccc5c4)ccc3ncc21` [DACTOLISIB], for which the half-inhibitory concentration (IC50) in the test on HT-29 is 1010 nM; in the test with SW-620 [1] it was 870 nM; in the test with NCI-H3122 it was 960 nM; with NCI-H446, 870 nM; with HeLa [4], 1090 nM; with HCT-15 it was 910 nM. For the same compound, the inhibition in vivo at 30 mg/kg in the test with SW-620 [2] is 51.7%; in the test on HeLa [3] it was 53.3%.
Consider `Cc1nc2cnc3ccc(-c4cnc5[nH]ccc5c4)cc3c2n1-c1ccc(C(F)(F)F)nc1`, for which the IC50 was determined as 93.1 nM in test [5]; 1530 nM in the test with HT-29; 1830 nM in the test on SW-620 [1]; 159 nM in [6]; 2360 nM with NCI-H3122; 104 nM in test [7]. Moreover, the IC50 in the test with NCI-H446 amounted to 3210 nM; with HeLa [4], 3710 nM; in the test with HCT-15, 2850 nM.
In the case of `Cc1nc2cnc3ccc(-c4ccc(N)nc4)cc3c2n1-c1ccc(F)cc1`, the half-maximal inhibitory concentration (IC50) in test [5] came out at 40.7 nM; with HT-29 it was 1210 nM; with SW-620 [1] it was 2130 nM; in [6], 93.8 nM; in the test with NCI-H3122, 4750 nM; in test [7] it was 51.3 nM. The values for the IC50 with NCI-H446, in the test on HeLa [4] and in the test on HCT-15 were 3610 nM, 1710 nM and 2020 nM, respectively.
With `Cc1nc2cnc3ccc(-c4cnc5[nH]ccc5c4)cc3c2n1-c1ccc(F)cc1`, the IC50 in test [5] is 28.9 nM; with HT-29, 1250 nM; with SW-620 [1], 1280 nM; in test [6], 38.7 nM; in the test on NCI-H3122, 2050 nM; in [7], 21.5 nM. The IC50 was 1650 nM in the test with NCI-H446, 1820 nM with HeLa [4] and 1130 nM in the test on HCT-15.
As to `COc1ccc(-n2c(C)nc3cnc4ccc(-c5cnc6[nH]ccc6c5)cc4c32)cc1`, the IC50 in test [5] amounted to 17.2 nM; in the test with HT-29 it was 820 nM; in the test on SW-620 [1] it was 1870 nM; in test [6], 67.2 nM; in the test on NCI-H3122, 1330 nM; in [7] it was 26.3 nM. In addition, the IC50 is 1510 nM in the test with NCI-H446, 960 nM with HeLa [4] and 750 nM in the test on HCT-15.
As to `Cc1nc2cnc3ccc(-c4ccc5[nH]ccc5c4)cc3c2n1-c1ccc(F)cc1`, the 50% inhibitory concentration (IC50) is 57.3 nM in [5]; 2720 nM in the test on HT-29; 2530 nM in the test with SW-620 [1]; 49.3 nM in test [6]; 2310 nM in the test with NCI-H3122; 29.8 nM in test [7]. The values for the IC50 with NCI-H446, with HeLa [4] and with HCT-15 were 3080 nM, 1790 nM and 1920 nM, respectively.
For the compound `Cc1nc2cnc3ccc(-c4cnc5[nH]ccc5c4)cc3c2n1[C@@H](C)c1ccc(F)cc1`, the half-maximal inhibitory concentration (IC50) stood at 203 nM in test [5]; 1710 nM with HT-29; 1610 nM with SW-620 [1]; 87.4 nM in test [6]; 1970 nM in the test with NCI-H3122; 140 nM in test [7]. The IC50 in the test on NCI-H446 stood at 3020 nM; with HeLa [4], 3510 nM; in the test with HCT-15, 1040 nM.

The values above are taken from ChEMBL document CHEMBL5108059, “Discovery of 2-Methyl-2-(4-(2-methyl-8-(1H-pyrrolo[2,3-b]pyridin-6-yl)-1H-naphtho[1,2-d]imidazol-1-yl)phenyl)propanenitrile as a Novel PI3K/mTOR Inhibitor with Enhanced Antitumor Efficacy In Vitro and In Vivo” (J Med Chem, 2022).
